A short description of data set [1]: Area under the curve determination of plasma levels in rats (rrAUC). It counts as in vivo. To be noted: rat, oral 10 mg/kg.
In data set [2] the test system is TNF-α production in LPS-stimulated human whole blood. The experiment in a line: Inhibition of TNF-α production from human whole blood (hWBA). It counts as cell-based. To be noted: LPS-stimulated human whole blood, read-out: hWBA.
The mark [3] stands for this setting: plasma 0.5-6 h post-dosing, read-out: RR AUC.
The mark [4] stands for this setting: IC50 for inhibition of TNF-α production.
Where [5] appears, read: plasma 0.5-6 h, read-out: RR AUC (nM · h), rapid rat AUC (rrAUC).

Experimental findings from patent US8541572B2 are described below.

Like-named read-outs stand apart in the source and are kept apart here.

Regarding `COc1ccc2c(c1)C(=O)N(C[C@@]1(C#Cc3ccc(C(=NO)c4ccc(F)cc4)cc3)NC(=O)NC1=O)C2` [Compound 2245], the AUC (in general, concentration integrated over time) in data set [1] (setting [3]) came to 1070 nM·h. Besides, the IC50 in data set [2] (Homo sapiens, IC50 for inhibition of TNF-α production) turned out to be 0.954 µM.
Regarding `COc1ccc2c(c1F)C(=O)N(C[C@@]1(C#Cc3ccc4c(c3)CCC43NC(=O)NC3=O)NC(=O)NC1=O)C2` (stereo partly shown) [Compound 2214], the AUC in data set [1] (setting [3]) came to 3460 nM·h. Besides, the IC50 in data set [2] (setting [4]) came to 0.186 µM.
In the case of `COc1ccc2c(c1)C(=O)N(C[C@@]1(C#Cc3ccc(C(O)C4CCN(C)CC4)cc3)NC(=O)NC1=O)C2` (stereo partly shown) [Compound 500], the AUC in data set [1] (setting [3]) stood at 11 nM·h. Moreover, the IC50 in data set [2] (setting [4]) stood at 0.244 µM.
`COc1ccc2c(c1)C(=O)N(C[C@@]1(C#Cc3ccc(-c4noc(C)n4)cc3)NC(=O)NC1=O)C2` [Compound 2253]: the AUC in data set [1] (setting [5]) amounted to 4140 nM·h. In data set [2] (IC50 for TNF-α production), the IC50 turned out to be 2.43 µM.
For `CCN1CCN(Cc2ccc(C#C[C@]3(CN4Cc5ccc(OC)c(F)c5C4=O)NC(=O)NC3=O)cc2)CC1` [Compound 974], the AUC in data set [1] (setting [3]) was 34 nM·h. Also, the IC50 in data set [2] (setting [4]) came out at 0.125 µM.
For `COc1ccc2c(c1)C(=O)N(C[C@@]1(C#Cc3ccc4c(C)n[nH]c4c3)NC(=O)NC1=O)C2` [Compound 723] the same measures were 7590 nM·h and 2.95 µM.
For `COc1ccc2c(c1)C(=O)N(C[C@@]1(C#Cc3ccc(-c4cc[nH]n4)nc3)NC(=O)NC1=O)C2` [Compound 2235] the same measures were 230 nM·h and 0.231 µM.
For the molecule `COc1ccc2c(c1)C(=O)N(C[C@@]1(C#Cc3ccc4c(c3)CCCC43NC(=O)NC3=O)NC(=O)NC1=O)C2` (stereo partly shown) [Compound 2312], the AUC in data set [1] (setting [5]) amounted to 14 nM·h. In addition, in data set [2] (IC50 for TNF-α production), the IC50 was 0.137 µM.
With `COc1ccc2c(c1F)C(=O)N(C[C@@]1(C#Cc3ccc(C)nc3)NC(=O)NC1=O)C2` [Compound 2274], the AUC in data set [1] (setting [5]) was 16400 nM·h. The IC50 in data set [2] (IC50 for TNF-α production) was found to be 0.396 µM.
Take `CCN1CCN(Cc2ccc(C#C[C@]3(CN4Cc5ccc(OC)cc5C4=O)NC(=O)NC3=O)cc2)CC1` [Compound 933]: the AUC in data set [1] (setting [5]) came out at 24 nM·h. In addition, in data set [2] (IC50 for TNF-α production), the IC50 was 0.238 µM.
For `COc1ccc2c(c1)C(=O)N(C[C@@]1(C#Cc3ccc(C4(C)NC(=O)NC4=S)cc3)NC(=O)NC1=O)C2` (stereo partly shown) [Compound 2258] the same measures were 438 nM·h and 0.398 µM.
Consider `COc1ccc2c(c1F)C(=O)N(C[C@@]1(C#Cc3ccc(N4C(=O)CCC4C(=O)NC4CC4)cc3)NC(=O)NC1=O)C2` (stereo partly shown) [Compound 1904], for which the AUC in data set [1] (setting [3]) came out at 213 nM·h. Moreover, the IC50 in data set [2] (setting [4]) was 0.278 µM.
`COc1ccc2c(c1)C(=O)N(C[C@@]1(C#Cc3ccc(-c4c(C)nn(C)c4C)nc3)NC(=O)NC1=O)C2` [Compound 2268]: the AUC in data set [1] (setting [5]) was 1070 nM·h. Also, the IC50 in data set [2] (IC50 for TNF-α production) turned out to be 9.03 µM.
As to `COc1ccc2c(c1F)C(=O)N(C[C@@]1(C#Cc3cccnc3C)NC(=O)NC1=O)C2` [Compound 2273], in data set [1] (setting [5]), the AUC was 2890 nM·h. Further, the IC50 in data set [2] (IC50 for TNF-α production) stood at 0.193 µM.
In the same order, the values of `COc1ccc2c(c1)C(=O)N(C[C@@]1(C#Cc3ccc(C4(C)NC(=O)NC4=O)c(F)c3)NC(=O)NC1=O)C2` (stereo partly shown) [Compound 2282] are 42 nM·h and 0.243 µM.
In the same order, the values of `CCN1CCC(C(=O)OC)(c2ccc(C#C[C@]3(CN4Cc5ccc(OC)cc5C4=O)NC(=O)NC3=O)cc2)CC1` [Compound 2276] are 2320 nM·h and 0.288 µM.
Consider `COc1ccc2c(c1)C(=O)N(C[C@@]1(C#Cc3ccc(C(O)(O)C(F)(F)F)cc3)NC(=O)NC1=O)C2` [Compound 2252], for which the AUC in data set [1] (setting [5]) amounted to 768 nM·h. For the same molecule, the IC50 in data set [2] (IC50 for TNF-α production) amounted to 0.258 µM.
For `COc1ccc2c(c1)C(=O)N(C[C@@]1(C#Cc3ccc(-c4ccccc4O)nc3)NC(=O)NC1=O)C2` [Compound 2277] the same measures were 271 nM·h and 2.09 µM.
For `COc1ccc2c(c1)C(=O)N(C[C@@]1(C#Cc3ccc(C(=NO)N4CCOCC4)cc3)NC(=O)NC1=O)C2` [Compound 941] the same measures were 58 nM·h and 0.1 µM.
On to `COc1ccc2c(c1F)C(=O)N(C[C@@]1(C#Cc3ccc(C4(C(N)=O)CCN(C)CC4)cc3)NC(=O)NC1=O)C2` [Compound 1314], for which the AUC in data set [1] (setting [3]) was found to be 16 nM·h. Further, the IC50 in data set [2] (setting [4]) is 0.152 µM.
